Ends that are not written are not given here.
Tests used:
Format in all cases: in vivo, mouse
[1] = Example 4: rate of change in body weight; settings: body weight 18 days after cell transplantation vs Day 0
Protocol: 8-week-old B2m^tm2(HLA-A24/H-2Db/B2M)Tai mice were randomly assigned to groups each involving 15 animals. The day of grouping was defined as Day 0. A 6 mg/mL peptide solution was prepared by dissolving a peptide having 4 linked epitopes TPV06 in distilled water (Otsuka Pharmaceutical Factory Inc.), and filled into the B Braun Injekt syringe (B. Braun Melsungen AG). After the equivalent amount of Montanide™ ISA 51 VG (SEPPIC) was filled into another syringe, these syringes were connected to each other via a connector, and the peptide solution was thoroughly mixed with Montanide™ ISA 51 VG to prepare an emulsion. Also, an emulsion of distilled water mixed with the equivalent amount of Montanide™ ISA 51 VG was prepared as a vehicle control. Each of these emulsions was subcutaneously administered weekly in amounts of 100 μL each in the vicinity of base of tail of each B2m^tm2(HLA-A24/H-2Db/B2M)Tai mouse, and administrations were carried out three times in total (Days 0, 7, and 14). […]
Body weight was measured using an electronic balance for animals, and a rate of change in body weight (BWC) was calculated from the body weight measured on Day 0 (the day of grouping, BW0) and the body weight on 18 days after cell transplantation (BW) according to the following formula. […]

[2] = Example 5: rate of change in body weight; settings: 18 days after cell transplantation vs Day 0
Protocol: (§1) Body weight was measured using an electronic balance for animals, and a rate of change in body weight (BWC) was calculated from the body weight measured on Day 0 (the day of grouping, BW0) and the body weight on 18 days after cell transplantation (BW) according to the following formula. Rate of change in body weight BWC (%)=(BW−BW0)/BW0×100
9-week-old B2m^tm2(HLA-A24/H-2Db/B2M)Tai mice were randomly assigned to groups each involving 15 animals. The day of grouping was defined as Day 0.
This study was conducted in the same way as in Example 4 except that an anti-mouse PD-L1 antibody was used instead of the anti-mouse PD-1 antibody. GoInVivo™ Purified anti-mouse CD274 (B7-H1, PD-L1) (Clone: 10F.9G2, BioLegend, Inc.) was prepared as an anti-mouse PD-L1 antibody (anti-mPD-L1 Ab) into 1 mg/mL using D-PBS (FUJIFILM Wako Pure Chemical Corp.) immediately before administration. One week after final administration of the emulsions (Day 21), the anti-mouse PD-L1 antibody was intraperitoneally administered at 200 μg/body.

[3] = Example 6: rate of change in body weight; settings: 18 days after cell transplantation vs Day 0
Protocol: as §1
9-week-old B2 m^tm2(HLA-A24/H-2Db/B2M)Tai mice were randomly assigned to groups each involving 15 animals. The day of grouping was defined as Day 0.
This study was conducted in the same way as in Example 4 except that TPV07 or TPV08 was used instead of TPV06 as a peptide having 4 linked epitopes. TPV07 and TPV08, as in TPV06, were each prepared into 6 mg/mL using distilled water (Otsuka Pharmaceutical Factory Inc.) and then mixed with the equivalent amount of Montanide™ ISA 51 VG (SEPPIC) to prepare an emulsion, which was administered.

Sequence | BWC (%) rate of change in body weight [1] | BWC (%) change in body weight [2] | BWC (%) change in body weight [3]
DYSARWNEIRRQIRPIFSNRRRVYDYNCHVDLRRLLQAEAPRL [TPV06, PEP5-RR-PEP9-RR-PEP6-RR-PEP4] | 27.0% | 21.9% | 
DYSARWNEIRRQIRPIFSNRRRVYDYNCHVDLRRASLDSDPWV [TPV07, PEP5-RR-PEP9-RR-PEP6-RR-PEP2] |  |  | 18.9%
DYSARWNEIRRQIRPIFSNRRRVYDYNCHVDLRRILEQSGEWWK [TPV08, PEP5-RR-PEP9-RR-PEP6-RR-PEP10] |  |  | 21.7%

From patent US12251447B2, “Combined formulation comprising four linked cytotoxic T lymphocyte (CTL) epitopes and a PD-1 pathway inhibitor and methods of use thereof to treat cancer” (Taiho Pharmaceutical Co., Ltd., priority 2018, dated 2025)
